Measurements as given in US11345659B2, “Pipecolic esters for inhibition of the proteasome” (THE BOARD OF REGENTS OF THE UNIVERSY OF TEXAS SYSTEM, priority 2018, dated 2022).

Target: T1, native human 20 S core proteasome (Homo sapiens, UniProt P25787+P25789)
T1 construct: purified from erythrocytes; purchased Enzo Life Sciences, Inc. (Farmingdale, N.Y.); host or cells: human erythrocytes
Assay: AFM imaging of gate conformers of 20 S proteasome
Experimental: The single molecule imaging of the 20 S proteasome was carried out as previously described, with a scanner E of the Multimode Nanoscope IIIa (Bruker Inc) (Gaczynska and Osmulski (2009) Atomic Force Microscopy as a Tool to Study the Proteasome Assemblies; Osmulski et al. (2009) Structure 17(8): 1137-1147. Available from http://www.scopus.com/inward/record.url?eid=2-s2.0-68149164657&partnerID=40&md5=dc5e413998472b20d822db9458de1955). In short, the proteasomes were deposited and electrostatically attached to a muscovite mica substrate, covered with imaging buffer (5 mM Tris/HCl, pH 7) and scanned in tapping mode in fluid using cantilevers with the spring constant of 0.35 N/m from the SNL (Sharp Nitride Lever) probes (Bruker Inc.) tuned to 9-10 kHz. Gentle scanning conditions with the amplitude setpoint in the range of 1.5-2.0V, drive voltage of 300-500 mV and 3.05 Hz scanning rate were used. Scans of 1 μm^2 fields (512×512 pixels) contained height-mode images of several dozens of top-view (“standing”) 20 S proteasome molecules. The gate status was deduced from a profile of raw height values of pixels measured by a probe scanning across the single proteasome particles. The proteasome a face that included the gate was completely rendered by a six-pixel (11-12 nm) scan-line. If the α face scan-line presented a central dip (a local minimum), the particle was classified as containing the open gate. If a plot of height values presented a concave function without a local minimum, the particle was classified as an intermediate conformer. If the function was convex, the particle was classified as containing the closed gate. The “events” of gate opening/closing were analyzed for scans of distinct particles as well as multiple scans of the same particles.
Next, AFM imaging of the native human 20 S core proteasome treated with 10 μM compound 3 was performed to get insight into the putative effects of the compound on the conformation of the α face in the single molecule fashion. In the in-liquid tapping mode AFM method, the outer shape of the α face is monitored by the ultra-sharp probe interacting […] with the protein molecule mostly by van der Waals forces (Gaczynska and Osmulski (2008) Methods Cell Biol. 90: 39-60). […] Treatment with 10 μM of rapamycin shifted the conformational equilibrium of the 20 S core from about 75% to about 50% of closed-gate molecules (Osmulski and Gaczynska (2013) Molecular pharmacology 84: 104-113). An apparent similar shift was induced by compound 3, when the partition of closed conformers dropped from 73±1% (n=4 experiments, 90 events of gate opening/closing) to 45±11% (n=6 experiments, 218 events). Moreover, upon additional refined analysis of “not closed” conformers, it was possible to distinguish the presumably open-gate forms from intermediate forms.
The putative binding site of compound 3 in the α ring pocket, identified by molecular modeling (FIG. 2) and biochemical data (FIG. 4), led to the examination of whether the inhibitor-induced conformational changes in a face gate dynamics. For this purpose, imaging of native 20 S proteasomes was employed using a previously established method of atomic force microscopy (AFM). In this method, topography of the α face of buffer-submerged proteasomes that stand on their opposite a face is rendered in real time by the ultra-sharp probe. A tip of the probe interacts with the molecules mostly by van der Waals forces (Gaczynska and Osmulski (2011) Methods Mol. Biol. 736: 117-32). The distribution of conformation types of a face is routinely accessed with sequential scans of fields of multiply randomly distributed proteasomes. Alternatively, consecutive single scan lines representing the gate status of individual particles are collected. The particles are classified as closed-gate if their a face is smooth and regularly concave (FIG. 5). […]

Question: For `COc1cc(CCCOC(=O)[C@@H]2CCCCN2C(=O)OCc2ccccc2)cc(OC)c1OC` [Compound 3, 1-benzyl 2-(3-(3,4,5-trimethoxyphenyl)propyl) (S)-piperidine-1,2-dicarboxylate], which “abundance of gate conformers” value (100 nM) is on record?
Answer: The value was “increased the abundance of closed-gate conformers and rendered the open-gate forms nearly undetectable”.

Question: What about the “contribution of open-gate proteasomes” value (1 μM) of the same compound?
Answer: Its value is “only about a half of that observed in the control particles”.

Question: And the “particles in closed-gate conformation” value (10 μM)?
Answer: The value was “less than a half of the particles were in the closed-gate conformation”.

Question: And the “contribution of open-gate and intermediate forms” value (10 μM, compared to control)?
Answer: Its value is “increased about twice”.

Question: What about the “partition of closed conformers” value (10 μM, n=6 experiments, 218 events, control 73±1%) of the same compound?
Answer: Its value is 45±11%.

Question: What about the “number of intermediate forms” value (10 μM, versus control) of the same compound?
Answer: Its value is “increased significantly”.

Question: And the “partition of open forms” value (10 μM, versus control)?
Answer: Its value is “remained remarkably steady”.
